Assay results published in PubChem BioAssay (NCI).
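All cell lines were grown in 96-well plates and treated with compound for 48 hours. GI50 is the concentration that inhibits growth by half. The concentration for full growth arrest is given as TGI.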

Tests used:
Test in all cases: inhibition of tumour cell growth, NCI panel, 48 h
[1] = test system: 786-0 renal
[2] = test system: A549 NSCLC
[3] = test system: ACHN renal
[4] = test system: BT-549 breast
[5] = test system: CAKI-1 renal
[6] = test system: CCRF-CEM leukemia
[7] = test system: COLO 205 colon
[8] = test system: DU-145 prostate
[9] = test system: EKVX NSCLC
[10] = test system: HCT-116 colon
[11] = test system: HCT-15 colon
[12] = test system: HL-60(TB) leukemia
[13] = test system: HOP-62 NSCLC
[14] = test system: HT29 colon
[15] = test system: IGROV1 ovarian
[16] = test system: KM12 colon
[17] = test system: M14 melanoma
[18] = test system: MDA-MB-231 breast
[19] = test system: MDA-MB-435
[20] = test system: MDA-N
[21] = test system: NCI-H226 lung
[22] = test system: NCI-H23 lung
[23] = test system: NCI-H522 lung
[24] = test system: NCI/ADR-RES ovarian
[25] = test system: OVCAR-3 ovarian
[26] = test system: OVCAR-4 ovarian
[27] = test system: OVCAR-5 ovarian
[28] = test system: OVCAR-8 ovarian
[29] = test system: PC-3 prostate
[30] = test system: RPMI-8226 leukemia
[31] = test system: RXF 393 renal
[32] = test system: SF-268 CNS
[33] = test system: SF-295 CNS
[34] = test system: SK-MEL-2 melanoma
[35] = test system: SK-MEL-28 melanoma
[36] = test system: SK-MEL-5 melanoma
[37] = test system: SK-OV-3 ovarian
[38] = test system: SN12C renal
[39] = test system: SNB-19 CNS
[40] = test system: SNB-75 CNS
[41] = test system: SW-620 colon
[42] = test system: TK-10 renal
[43] = test system: U251 CNS
[44] = test system: UACC-257 melanoma
[45] = test system: UACC-62 melanoma
[46] = test system: A498 renal
[47] = test system: HCC-2998 colon
[48] = test system: HOP-92 NSCLC
[49] = test system: HS 578T breast
[50] = test system: K-562 leukemia
[51] = test system: LOX IMVI melanoma
[52] = test system: MALME-3M melanoma
[53] = test system: MCF7 breast
[54] = test system: MOLT-4 leukemia
[55] = test system: NCI-H460 lung
[56] = test system: SF-539 CNS
[57] = test system: SR leukemia
[58] = test system: T-47D breast
[59] = test system: UO-31 renal

Work on `CS(=O)(=O)c1nc(-c2cc3c(c(S(C)(=O)=O)n2)CCCC3)cc2c1CCCCC2` yielded a TGI [1] of over 100 µM, a TGI [2] of over 100 µM and a TGI [3] of over 100 µM. The TGI [4] was over 100 µM, the TGI [5] was over 100 µM and the TGI [6] was over 100 µM. For the same compound, the TGI [7] was over 100 µM, the TGI [8] was over 100 µM and the TGI [9] was over 100 µM. For the same compound, the TGI [10] was over 100 µM, the TGI [11] was over 100 µM and the TGI [12] was over 100 µM. For the same compound, the TGI [13] was over 100 µM, the TGI [14] was over 100 µM and the TGI [15] was 54.3 µM. It also gave a TGI [16] of over 100 µM, a TGI [17] of over 100 µM and a TGI [18] of over 100 µM. For the same compound, the TGI [19] was over 100 µM, the TGI [20] was over 100 µM and the TGI [21] was over 100 µM. The TGI [22] was over 100 µM, the TGI [23] was over 100 µM and the TGI [24] was over 100 µM. It also gave a TGI [25] of over 100 µM, a TGI [26] of over 100 µM and a TGI [27] of over 100 µM. The TGI [28] was over 100 µM, the TGI [29] was over 100 µM and the TGI [30] was over 100 µM. The TGI [31] was over 100 µM, the TGI [32] was 85.1 µM and the TGI [33] was over 100 µM. For the same compound, the TGI [34] was over 100 µM, the TGI [35] was over 100 µM and the TGI [36] was over 100 µM. For the same compound, the TGI [37] was over 100 µM, the TGI [38] was over 100 µM and the TGI [39] was over 100 µM. For the same compound, the TGI [40] was over 100 µM, the TGI [41] was over 100 µM and the TGI [42] was over 100 µM. The TGI [43] was over 100 µM, the TGI [44] was over 100 µM and the TGI [45] was over 100 µM.

`COc1cc(OC)c(C(=O)/C=C/c2cc3c(cc2OCc2ccccc2)OC(C)(C)CC3)cc1CC=C(C)C` showed a GI50 [1] of 9.33 µM, a TGI [1] of over 25 µM and a GI50 [46] of 5.42 µM. For the same compound, the TGI [46] was 21.8 µM, the GI50 [2] was 8.92 µM and the TGI [2] was over 25 µM. For the same compound, the GI50 [3] was 5.42 µM, the TGI [3] was 14.5 µM and the GI50 [4] was 4.2 µM. For the same compound, the TGI [4] was 12.3 µM, the GI50 [5] was 6.74 µM and the TGI [5] was 16.9 µM. It also gave a GI50 [6] of 4.02 µM, a TGI [6] of 19.3 µM and a GI50 [7] of 3.97 µM. It also gave a TGI [7] of 8.9 µM, a GI50 [8] of 5.95 µM and a TGI [8] of over 25 µM. It also gave a GI50 [9] of 6.73 µM, a TGI [9] of 22.6 µM and a GI50 [47] of 8.91 µM. For the same compound, the TGI [47] was over 25 µM, the GI50 [10] was 2980 nM and the TGI [10] was 6.41 µM. It also gave a GI50 [11] of 3.84 µM, a TGI [11] of 9.68 µM and a GI50 [12] of 5.43 µM. For the same compound, the TGI [12] was 17.1 µM, the GI50 [13] was 6.78 µM and the TGI [13] was 13.5 µM. The GI50 [48] was 3.52 µM, the TGI [48] was 19.9 µM and the GI50 [49] was 3.05 µM. The TGI [49] was 16.7 µM, the GI50 [14] was 3.57 µM and the TGI [14] was 8.92 µM. The GI50 [15] was 15 µM, the TGI [15] was over 25 µM and the GI50 [50] was 4.26 µM. The TGI [50] was over 25 µM, the GI50 [16] was 3.85 µM and the TGI [16] was 8.63 µM. It also gave a GI50 [51] of 3.25 µM, a TGI [51] of 7.17 µM and a GI50 [17] of 3.63 µM. The TGI [17] was 9.43 µM, the GI50 [52] was 4.89 µM and the TGI [52] was 12.6 µM. For the same compound, the GI50 [53] was 3.08 µM, the TGI [53] was 11.2 µM and the GI50 [18] was 10.1 µM. It also gave a TGI [18] of over 25 µM, a GI50 [19] of 4.54 µM and a TGI [19] of 18.2 µM. For the same compound, the GI50 [54] was 7.03 µM, the TGI [54] was over 25 µM and the GI50 [21] was 6.61 µM. The TGI [21] was 22.1 µM, the GI50 [22] was 6.77 µM and the TGI [22] was over 25 µM. For the same compound, the GI50 [55] was 4.38 µM, the TGI [55] was 11.8 µM and the GI50 [23] was 7.85 µM. The TGI [23] was over 25 µM, the GI50 [24] was 6.89 µM and the TGI [24] was over 25 µM. For the same compound, the GI50 [25] was 4.89 µM, the TGI [25] was 13.1 µM and the GI50 [26] was 4.06 µM. For the same compound, the TGI [26] was 14.3 µM, the GI50 [27] was 13.4 µM and the TGI [27] was over 25 µM. It also gave a GI50 [28] of 4.14 µM, a TGI [28] of over 25 µM and a GI50 [29] of 5.75 µM. For the same compound, the TGI [29] was over 25 µM, the GI50 [30] was 2860 nM and the TGI [30] was 11.6 µM. For the same compound, the GI50 [31] was 5.91 µM, the TGI [31] was 17.1 µM and the GI50 [32] was 4.82 µM. The TGI [32] was 15.2 µM, the GI50 [33] was 4.56 µM and the TGI [33] was 15.8 µM. The GI50 [56] was 4.53 µM, the TGI [56] was 8.8 µM and the GI50 [34] was 6.84 µM. For the same compound, the TGI [34] was over 25 µM, the GI50 [35] was 4.07 µM and the TGI [35] was 9.23 µM. For the same compound, the GI50 [36] was 3.33 µM, the TGI [36] was 6.53 µM and the GI50 [37] was 7.42 µM. It also gave a TGI [37] of over 25 µM, a GI50 [38] of 7.36 µM and a TGI [38] of over 25 µM. The GI50 [39] was 6.22 µM, the TGI [39] was 17.3 µM and the GI50 [40] was 2440 nM. For the same compound, the TGI [40] was 13.1 µM, the GI50 [57] was 2770 nM and the TGI [57] was 22.8 µM. For the same compound, the GI50 [41] was 4.31 µM, the TGI [41] was 10.2 µM and the GI50 [58] was 3.74 µM. For the same compound, the TGI [58] was 19.1 µM, the GI50 [42] was 8.89 µM and the TGI [42] was 19.6 µM. For the same compound, the GI50 [43] was 4.03 µM, the TGI [43] was 10.8 µM and the GI50 [44] was 13.1 µM. The TGI [44] was over 25 µM, the GI50 [45] was 3.8 µM and the TGI [45] was 10.5 µM. It also gave a GI50 [59] of 13 µM and a TGI [59] of over 25 µM.

`CN(C)c1ccc(C=NCC2CCCN3CCCCC23)cc1` (configuration not stated) was tested, and the TGI [1] was over 100 µM, the TGI [2] was over 100 µM and the TGI [3] was over 100 µM. For the same compound, the TGI [4] was over 100 µM, the TGI [5] was over 100 µM and the TGI [7] was over 100 µM. The TGI [8] was over 100 µM, the TGI [9] was over 100 µM and the TGI [47] was over 100 µM. The TGI [10] was over 100 µM, the TGI [11] was over 100 µM and the TGI [13] was over 100 µM. It also gave a TGI [49] of over 100 µM, a TGI [15] of over 100 µM and a TGI [16] of over 100 µM. The TGI [51] was over 100 µM, the TGI [17] was over 100 µM and the TGI [52] was over 100 µM. The TGI [53] was over 100 µM, the TGI [18] was over 100 µM and the TGI [20] was over 100 µM. For the same compound, the TGI [21] was over 100 µM, the TGI [22] was over 100 µM and the TGI [55] was over 100 µM. For the same compound, the TGI [23] was over 100 µM, the TGI [24] was over 100 µM and the TGI [25] was over 100 µM. It also gave a TGI [27] of over 100 µM, a TGI [28] of over 100 µM and a TGI [29] of over 100 µM. It also gave a TGI [31] of over 100 µM, a TGI [32] of over 100 µM and a TGI [33] of over 100 µM. It also gave a TGI [36] of over 100 µM, a TGI [37] of over 100 µM and a TGI [39] of over 100 µM. It also gave a TGI [40] of over 100 µM, a TGI [42] of over 100 µM and a TGI [44] of over 100 µM. The TGI [45] was over 100 µM and the TGI [59] was over 100 µM.
